Results reported in ChEMBL document CHEMBL1201862, “PubChem BioAssay data set” (2004).
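Method: 48-hour compound exposure of cells in 96-well plates, five concentrations, linear interpolation of endpoints. The concentration for 50% growth inhibition is given as GI50.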 The source made the active and inactive calls. No stated cut-off is given here; in the data, active = GI50 up to about 1.1 µM and inactive = higher.

Columns and labels:
Assay in all cases: NCI-60 cell line screen, 48 h
786-0 = test system: 786-0
A549 = test system: A549
CAKI-1 = test system: CAKI-1
DU-145 = test system: DU-145
HCT-116 = test system: HCT-116
HOP-62 = test system: HOP-62
M14 = test system: M14
MDA-MB-231 = test system: MDA-MB-231
MDA-N = test system: MDA-N
MOLT-4 = test system: MOLT-4
NCI-H460 = test system: NCI-H460
PC-3 = test system: PC-3
SK-MEL-2 = test system: SK-MEL-2
SK-OV-3 = test system: SK-OV-3
SN12C = test system: SN12C
SR = test system: SR
SW-620 = test system: SW-620
T47D = test system: T47D
UACC-62 = test system: UACC-62

Measured: GI50

CC(=O)CC(OC(C)=O)C1=CCC2C(CC1C)OC(=O)C2C (stereo not given)
inactive: 786-0 > 100 µM | A549 > 100 µM | CAKI-1 > 100 µM | DU-145 > 100 µM | HCT-116 > 100 µM | HOP-62 > 100 µM | M14 > 100 µM | MDA-MB-231 > 100 µM | MDA-N > 100 µM | MOLT-4 > 100 µM | NCI-H460 > 100 µM | PC-3 > 100 µM | SK-MEL-2 > 100 µM | SK-OV-3 > 100 µM | SN12C > 100 µM | SR 78.9 µM | SW-620 > 100 µM | T47D > 100 µM | UACC-62 > 100 µM

C=C(CN)CO[Si](C)(C)C(C)(C)C
inactive: 786-0 > 100 µM | A549 > 100 µM | CAKI-1 > 100 µM | DU-145 > 100 µM | HCT-116 > 100 µM | HOP-62 > 100 µM | M14 > 100 µM | MDA-MB-231 > 100 µM | MDA-N > 100 µM | MOLT-4 > 100 µM | NCI-H460 > 100 µM | PC-3 > 100 µM | SK-MEL-2 > 100 µM | SK-OV-3 > 100 µM | SN12C > 100 µM | SR > 100 µM | SW-620 > 100 µM | T47D > 100 µM | UACC-62 > 100 µM

NC1=Nc2ccccc2Sc2cccc(F)c21
inactive: 786-0 > 100 µM | A549 57.5 µM | CAKI-1 > 100 µM | DU-145 > 100 µM | HCT-116 29.1 µM | HOP-62 > 100 µM | M14 50.9 µM | MDA-MB-231 > 100 µM | MDA-N 46.1 µM | MOLT-4 37.8 µM | NCI-H460 > 100 µM | PC-3 63.5 µM | SK-MEL-2 > 100 µM | SK-OV-3 > 100 µM | SN12C > 100 µM | SR 35.1 µM | SW-620 > 100 µM | T47D 62.2 µM | UACC-62 60.3 µM

COc1ccc(C(=O)N/N=C2\C(=O)c3c(C)cc(C)cc3CC2(C)C)cc1
inactive: 786-0 18.6 µM | A549 19.4 µM | CAKI-1 36 µM | DU-145 24.2 µM | HCT-116 17.1 µM | HOP-62 18 µM | M14 19.8 µM | MDA-MB-231 19.7 µM | MDA-N 19.3 µM | MOLT-4 11.5 µM | NCI-H460 25.6 µM | PC-3 22.2 µM | SK-MEL-2 18.9 µM | SK-OV-3 29.2 µM | SN12C 18.4 µM | SR 18.5 µM | SW-620 20.8 µM | T47D 13.7 µM | UACC-62 15.1 µM

C[C@@]12CCC3C1C=C1C(=O)c4cc(O)ccc4C(=O)[C@]1(O2)[C@@]3(C)C=O
inactive: 786-0 4.14 µM | A549 12 µM | CAKI-1 4.09 µM | DU-145 2.91 µM | HCT-116 3.52 µM | HOP-62 8.59 µM | M14 8.34 µM | MDA-MB-231 8.71 µM | MDA-N 3.48 µM | MOLT-4 2.3 µM | NCI-H460 2.85 µM | PC-3 7.8 µM | SK-MEL-2 8.91 µM | SK-OV-3 10.2 µM | SN12C 2.02 µM | SR 1.58 µM | SW-620 3.9 µM | T47D 3.55 µM | UACC-62 7.43 µM

CC(=O)Nc1ccc(C2SCc3nc4ccccc4n32)cc1 (stereo not given)
inactive: 786-0 56.8 µM | A549 > 100 µM | CAKI-1 39.2 µM | DU-145 > 100 µM | HCT-116 > 100 µM | HOP-62 > 100 µM | M14 > 100 µM | MDA-MB-231 26.2 µM | MDA-N > 100 µM | MOLT-4 > 100 µM | NCI-H460 > 100 µM | PC-3 87.7 µM | SK-MEL-2 > 100 µM | SK-OV-3 > 100 µM | SN12C > 100 µM | SR > 77.1 µM | SW-620 > 100 µM | T47D 48.9 µM | UACC-62 > 100 µM

O=C1NC(=O)[C@@H](OCC2CCCCC2)[C@@H]2OCC3OC(C(O)C3O)C12 (stereo not given in full)
inactive: 786-0 > 100 µM | A549 > 100 µM | CAKI-1 > 100 µM | DU-145 > 100 µM | HCT-116 > 100 µM | HOP-62 > 100 µM | M14 > 100 µM | MDA-MB-231 > 100 µM | MDA-N > 100 µM | MOLT-4 > 100 µM | NCI-H460 > 100 µM | PC-3 > 100 µM | SK-MEL-2 > 100 µM | SK-OV-3 > 100 µM | SN12C > 100 µM | SR > 100 µM | SW-620 > 100 µM | T47D > 100 µM | UACC-62 > 100 µM

COc1ccc(S(=O)(=O)Nc2ccc(-c3csc(N4C(=O)/C(=C/C=C\c5ccccc5)N=C4c4ccccc4)n3)cc2)cc1Cl
inactive: 786-0 31.3 µM | A549 28.9 µM | CAKI-1 36.1 µM | DU-145 31.8 µM | HCT-116 25.7 µM | HOP-62 31.3 µM | M14 27.6 µM | MDA-MB-231 22.9 µM | MDA-N 31.3 µM | MOLT-4 22.8 µM | NCI-H460 32.1 µM | PC-3 31.3 µM | SK-MEL-2 22.6 µM | SK-OV-3 65.3 µM | SN12C 33.2 µM | SR 31.8 µM | SW-620 43 µM | T47D 19.5 µM | UACC-62 19.4 µM

CNC(=O)OCc1c(COC(=O)NC)c(-c2ccc(Cl)c(Cl)c2)n2c1SCC2
inactive: 786-0 16.7 µM | A549 23.2 µM | CAKI-1 4.22 µM | DU-145 17.2 µM | HCT-116 11.5 µM | HOP-62 17.8 µM | M14 18.7 µM | MDA-MB-231 10.8 µM | MDA-N 18.5 µM | MOLT-4 12 µM | NCI-H460 9.04 µM | PC-3 17.1 µM | SK-MEL-2 11.7 µM | SK-OV-3 6.21 µM | SN12C 13 µM | SR 2.33 µM | SW-620 10.8 µM | T47D 8.81 µM | UACC-62 5.74 µM

COC(=O)C1=C(C(=O)OC)C2(C)CCC(=O)C1O2 (stereo not given)
inactive: 786-0 > 10 µM | A549 > 10 µM | CAKI-1 > 10 µM | DU-145 > 10 µM | HCT-116 > 10 µM | HOP-62 > 10 µM | M14 > 10 µM | MDA-MB-231 > 10 µM | MDA-N > 10 µM | MOLT-4 > 10 µM | NCI-H460 > 10 µM | PC-3 > 10 µM | SK-MEL-2 > 10 µM | SK-OV-3 > 10 µM | SN12C > 10 µM | SR > 10 µM | SW-620 > 10 µM | T47D > 10 µM | UACC-62 > 10 µM
